Assay results as given in patent US12635686B2, “Compositions and methods for imposing seed quality” (priority 2014, dated 2026).

How the values were obtained:
Type in all cases: in vivo
[1] = test system: Inbred Seed Corn; assay: Seed size and shape evaluation of seed from treated field plots (estimated units, bag weight, proportions); details: for % RDS: rounds as share of all units; for ABOVE 25: seed above size 25; for BELOW 17: seed below size 17; for EST. UNITS, total: sum of the four size/shape categories
Procedure: In an actively growing seed corn field scheduled to be treated with Drexel Defol® 750, four test plots were evaluated. Two plots were treated with Drexel Defol® 5, a sodium chlorate formulation containing 5 pounds of active sodium chlorate per gallon, and with varying amounts of cyanate anions. Sodium cyanate salt was used as the source of cyanate for its compatibility with sodium chlorate. The results of these two treatments were compared to an untreated check and a plot treated with Defol® 750, which contained 7.5 pounds of active sodium chlorate per gallon. The amount of active sodium chlorate applied in the three treated plots was equivalent.
• Crop: Inbred Seed Corn • Variety: A0036RMQKZ×HCL4011 • Plot Sizes: 5 acres for Plots 1-3; 7 acres for Plot 4 • Plot Location: Near Oxford, WI • Season/Year: Summer/2013 • Corn Stage: Full Dent • Application Equipment: Case Patriot Sprayer • Application Conditions: Temperature: 86° F. • Sky: Sunny • Wind: 4 mph • Application Diluent: Water • Application Volume: 20 gallons per acre • Number of full days between application and harvest: 24 days • Post Harvest Seed • Treatment: CruiserMaxx® Corn 250 Test Plot Treatments: • Plot 1—Untreated Check • Plot Size: 5 acres • Plot 2—Treatment A • Defol® 5: 4.8 quarts per acre • Sodium cyanate: 6.4 grams per acre • Water: 75.2 quarts per acre • Plot Size: 5 acres • Plot 3—Treatment B • Defol® 5: 4.8 quarts per acre • Sodium cyanate: 15.9 grams per acre • Water: 75.2 quarts per acre • Plot size: 5 acres • Plot 4—Defol® 750 Treatment Check • Defol® 750: 3.2 quarts per acre • Water: 76.8 quarts per acre • Plot size: 7 acres
Samples of corn seed from each of the four test plots were evaluated for seed size, shape, as well as germination under certain test conditions: warm germination, cold germination and saturated cold germination. Each of the four evaluated categories (i.e., 26/21 Round, 21/17 Round, 26/21 Flat, 21/17 Flat) constituted desirable and saleable seed size and shape. Evaluation was performed at Biodiagnostics, Inc., River Falls, WI. The results were as follows:
• Crop: Inbred Seed Corn • Variety: D2507VT3P • Plot Location: Jackson, WI • Season/Year: Summer/2014 • Corn Stage at Application: to Full Dent • Moisture at Application: 42% • Application Equipment: Case Patriot Sprayer • Application Conditions: Temperature: 88-90° F. • Sky: Clear • Wind: 2-3 mph • Application Diluent: Water • Application Volume: 20 gallons per acre • Number of full days between application and harvest: 8 days • Post Harvest Seed Treatment: CruiserMaxx® Corn 250 Test Plot Treatments: • Plot 1—Untreated Check • Plot Size: Balance of Field • Plot 2—Treatment A • Defol® 5: 4.8 quarts per acre • Sodium cyanate: 6.4 grams per acre • Water: 75.2 quarts per acre • Plot Size: 16 acres • Plot 3—Defol® 750 Treatment Check • Defol® 750: 3.2 quarts per acre • Water: 76.8 quarts per acre • Plot Size: 16 acres
Samples of corn seed from each of the three test plots were evaluated for desirable/saleable seed size and shape, as well as germination under certain test conditions: warm germination, cold germination and saturated cold germination. Each of the four evaluated categories (i.e., 24/21 Round, 21/17 Round, 24/21 Flat, 21/17 Flat) constituted desirable and saleable seed size and shape. The results were as follows: […]

[2] = test system: Inbred Seed Corn; assay: Warm germination test of harvested seed; details: for WARM GERM, sum: sum of the four size/shape categories
Text: (§1) Seed quality can be evaluated by germination tests, such as warm germination, cold germination, and saturated cold germination. These types of tests are commonly used to predict seed germination and emergence. Among these tests, the saturated cold germination test exposes the seeds to cold, wet, and oxygen deficient stress, and is thus considered probative of seed germination viability over a range of field conditions. […]
(§2) • Crop: Inbred Seed Corn • Variety: D2905VT3P • Plot Location: New Haven, WI • Season/Year: Summer/2014 • Corn Stage at Application: to Full Dent • Moisture at Application: 44% • Application Equipment: Case Patriot Sprayer • Application Conditions: Temperature: 88-90° F. • Sky: Clear • Wind: 2-3 mph • Application Diluent: Water • Application Volume: 20 gallons per acre • Number of full days between application and harvest: 10 days • Post Harvest Seed Treatment: CruiserMaxx® Corn 250 Test Plot Treatments: • Plot 1—Untreated Check • Plot Size: Balance of Field • Plot 2—Treatment A • Defol® 5: 4.8 quarts per acre • Sodium cyanate: 6.4 grams per acre • Water: 75.2 quarts per acre • Plot Size: 16 acres • Plot 3—Defol® 750 Treatment Check • Defol® 750: 3.2 quarts per acre • Water: 76.8 quarts per acre • Plot Size: 16 acres • Plot 4—Treatment B • Sodium cyanate: 6.4 grams per acre • Water: 80 quarts per acre • Plot Size: 16 acres
(§3) Samples of corn seed from each of the three test plots were evaluated for desirable/saleable seed size and shape, as well as germination under certain test conditions: warm germination, cold germination and saturated cold germination. Each of the four evaluated categories (i.e., 24/21 Round, 21/16 Round, 24/21 Flat, 21/16 Flat) constituted desirable and saleable seed size and shape. The results were as follows:
as §2, with “D3910VT2P” for “D2905VT3P”, “Springville,” for “New Haven,”, “Very early start of dent” for “to Full Dent”, “50-55%” for “44%”, “17” for “10”
as §3, with “25/20” for “24/21”, “20/16” for “21/16”, “shape.” for “shape. The results were as follows:”

[3] = test system: Inbred Seed Corn; assay: Cold germination test of harvested seed; details: for COLD GERM, sum: sum of the four size/shape categories
Text: as §1, §2, §3
as §2, with “D3910VT2P” for “D2905VT3P”, “Springville,” for “New Haven,”, “Very early start of dent” for “to Full Dent”, “50-55%” for “44%”, “17” for “10”
as §3, with “25/20” for “24/21”, “20/16” for “21/16”, “shape.” for “shape. The results were as follows:”

[4] = test system: Inbred Seed Corn; assay: Saturated cold (super cold) germination test of harvested seed; details: for SUPER COLD, sum: sum of the four size/shape categories
Text: Seed quality can be evaluated by germination tests, such as warm germination, cold germination, and saturated cold germination. These types of tests are commonly used to predict seed germination and emergence. Among these tests, the saturated cold germination test exposes the seeds to cold, wet, and oxygen deficient stress, and is thus considered probative of seed germination viability over a range of field conditions.
The term “seed vigor” refers to a measure of the quality of a seed assemblage based on certain properties, such as percent germination, which can predict seed germination and emergence under a wide range of field conditions, particularly stress conditions. The methodology of the present disclosure can be followed to produce a seed assemblage that is characterized by enhanced seed vigor, as determined by seed vigor testing. […] One such technique is known as the saturated cold germination test. According to the Seed Vigor Testing Handbook by the Association of Official Seed Analysts (2009), the saturated cold germination test is the most stressful of various cold-test procedures for determining the vigor of a seed assemblage. In this test, the soil or planting medium is maintained at 100% water holding capacity for the duration of the test, which also subjects seeds to sub-optimal temperatures and soil-borne pathogens. These conditions evaluate seeds based on their response to three stress factors: imbibitional chilling injury, attack by soil-borne pathogens, and limited oxygen availability. These harsh conditions can allow testers to discriminate between seed assemblages differing in vigor, and thus the saturated cold germination test can act as a good indicator of seed quality for many crops. […]
as §2
as §3, with “follows: […]” for “follows:”

[5] = Example 2 Hybrid 2 (D2905VT3P, 2014), seed size 21/16F
[6] = Example 2 Hybrid 2 (D2905VT3P, 2014), seed size 21/16R
[7] = Example 2 Hybrid 2 (D2905VT3P, 2014), seed size 24/21F
[8] = Example 2 Hybrid 2 (D2905VT3P, 2014), seed size 24/21R
[9] = Example 2 Hybrid 2, column headed GRAMS in the 8th table
[10] = Example 2 Hybrid 3 (D3910VT2P, 2014), seed size 20/16F
[11] = Example 2 Hybrid 3 (D3910VT2P, 2014), seed size 20/16R
[12] = Example 2 Hybrid 3 (D3910VT2P, 2014), seed size 25/20F
[13] = Example 2 Hybrid 3 (D3910VT2P, 2014), seed size 25/20R
[14] = Example 2 Hybrid 3, column headed GRAMS in the 12th table

N#CO [Cyanate, Sodium cyanate]
EST. BAG WT. [1, 5]: 40.5 lbs | EST. UNITS [1, 5]: 198 | EST. BAG WT. [1, 6]: 45.7 lbs | EST. UNITS [1, 6]: 392 | EST. BAG WT. [1, 7]: 51.6 lbs | EST. UNITS [1, 7]: 180 | EST. BAG WT. [1, 8]: 60.5 lbs | EST. UNITS [1, 8]: 253 | % SF OF ALL FL ([1]; Example 2 Hybrid 2, 21/16F units as share of 24/21F and 21/16F): 52.38% | % SR OF ALL RDS ([1]; Example 2 Hybrid 2, 21/16R units as share of 24/21R and 21/16R): 60.78% | % RDS ([1]; Example 2 Hybrid 2): 63.05% | ABOVE 25 [1, 9]: 5 | BELOW 17 [1, 9]: 21 | EST. UNITS, total ([1]; Example 2 Hybrid 2): 1023 | yields and proportions of seed at desirable and saleable sizes and shapes ([1]; Example 2 Hybrid 2 and Hybrid 3, compared to the Untreated Checks): higher yields and proportions | EST. BAG WT. [1, 10]: 40.1 lbs | EST. UNITS [1, 10]: 232 | EST. BAG WT. [1, 11]: 42.7 lbs | EST. UNITS [1, 11]: 218 | EST. BAG WT. [1, 12]: 50.6 lbs | EST. UNITS [1, 12]: 361 | EST. BAG WT. [1, 13]: 57 lbs | EST. UNITS [1, 13]: 234 | % SF OF ALL FL ([1]; Example 2 Hybrid 3, 20/16F units as share of 25/20F and 20/16F): 39.12% | % SR OF ALL RDS ([1]; Example 2 Hybrid 3, 20/16R units as share of 25/20R and 20/16R): 48.23% | % RDS ([1]; Example 2 Hybrid 3): 43.25% | ABOVE 25 [1, 14]: 4 | BELOW 17 [1, 14]: 23 | EST. UNITS, total ([1]; Example 2 Hybrid 3): 1045 | bag weight, in words ([1]; Examples 1 and 2, compared to the Untreated Check): more desirable bag weights | WARM GERM [2, 5]: 96% | WARM GERM [2, 6]: 96% | WARM GERM [2, 7]: 99% | WARM GERM [2, 8]: 98% | WARM GERM, sum ([2]; Example 2 Hybrid 2): 389% | WARM GERM [2, 10]: 98% | WARM GERM [2, 11]: 96% | WARM GERM [2, 12]: 99% | WARM GERM [2, 13]: 99% | WARM GERM, sum ([2]; Example 2 Hybrid 3): 392% | COLD GERM [3, 5]: 98% | COLD GERM [3, 6]: 96% | COLD GERM [3, 7]: 99% | COLD GERM [3, 8]: 96% | COLD GERM, sum ([3]; Example 2 Hybrid 2): 389% | COLD GERM [3, 10]: 95% | COLD GERM [3, 11]: 95% | COLD GERM [3, 12]: 96% | COLD GERM [3, 13]: 97% | COLD GERM, sum ([3]; Example 2 Hybrid 3): 383% | seed vigor based on the super cold germination percentage ([4]; Example 2, over the Untreated Checks, particularly Hybrid 3): increased seed vigor | SUPER COLD [4, 5]: 95% | SUPER COLD [4, 6]: 92% | SUPER COLD [4, 7]: 97% | SUPER COLD [4, 8]: 99% | SUPER COLD, sum ([4]; Example 2 Hybrid 2): 383% | SUPER COLD [4, 10]: 90% | SUPER COLD [4, 11]: 92% | SUPER COLD [4, 12]: 95% | SUPER COLD [4, 13]: 95% | SUPER COLD, sum ([4]; Example 2 Hybrid 3): 372%
